Each block holds one compound with its values, some of them ahead of it.
Legend:
[1] = Protein binding in plasma (unknown origin); format: ADME, cell-free; settings: read-out: PPB (converted)
[2] = Oral bioavailability in human; format: ADME, organism-based; settings: in vivo
[3] = Bioavailability in human at 500 mg, IM; format: ADME, organism-based; settings: in vivo
[4] = Drug excretion in human urine assessed as unaltered drug; format: ADME; settings: read-out: Drug excretion
[5] = Elimination half life in human at 1 g, iv infusion for 30 mins; format: ADME, organism-based; settings: in vivo, read-out: beta t1/2 (converted)
[6] = Chemical stability of compound assessed as compound degradation at 37 degreeC measured for 24 hrs; format: physicochemical; settings: read-out: Drug degradation
[7] = Half life of compound; format: physicochemical
[8] = Half life of compound in human; format: ADME
[9] = Half life in human at 600 mg, iv administered every 12 hrs as 1 hr infusion; format: ADME, organism-based; settings: in vivo

SMILES: Cc1onc(-c2ccccc2)c1C(=O)N[C@@H]1C(=O)N2[C@@H]1SC(C)(C)[C@@H]2C(=O)O [OXACILLIN]
fraction unbound [1]: 0.1

SMILES: C[C@H]1[C@H](NC(=O)/C(=N\OC(C)(C)C(=O)O)c2csc(N)n2)C(=O)N1S(=O)(=O)O [AZTREONAM]
bioavailability [2]: 1% | bioavailability [3]: 100% | dose excreted [4]: 68%

SMILES: CC1(C)S[C@@H]2[C@H](NC(=O)[C@H](N)c3ccc(O)cc3)C(=O)N2[C@H]1C(=O)O [AMOXICILLIN]
fraction unbound [1]: 0.7

SMILES: CC1(C)S[C@@H]2[C@H](NC(=O)C(C(=O)O)c3ccccc3)C(=O)N2[C@H]1C(=O)O (some centres not stated) [CARBENICILLIN]
half-life [8]: 1 h

SMILES: CCO/N=C(\C(=O)N[C@@H]1C(=O)N2C(C(=O)O)=C(Sc3nc(-c4cc[n+](C)cc4)cs3)CS[C@H]12)c1nsc(NP(=O)(O)O)n1.[Na+]
half-life [9]: 1.6 h

The next lines start with the values.

half-life [5]: 1 h | degraded at 24 h [6]: 60%
SMILES: C[C@@H](O)[C@H]1C(=O)N2C(C(=O)O)=C(S[C@@H]3CN[C@H](C(=O)N(C)C)C3)[C@H](C)[C@H]12 [MEROPENEM]

fraction unbound [1]: 0.1
SMILES: Cc1onc(-c2ccccc2Cl)c1C(=O)N[C@@H]1C(=O)N2[C@@H]1SC(C)(C)[C@@H]2C(=O)O [CLOXACILLIN]

half-life [7]: 0.333 h | fraction unbound [1]: 0.4
SMILES: CC1(C)S[C@@H]2[C@H](NC(=O)Cc3ccccc3)C(=O)N2[C@H]1C(=O)O [PENICILLIN G]
